# Bridge positions count the residues as written; N and C are the ends. Square brackets hold non-standard residues; d marks the D form. Peptide text beside a SMILES is read from it. * marks the point of attachment. Tyr(3-NO2) = N[C@@H](Cc1ccc(O)c([N+](=O)[O-])c1)C(=O)O; Phe(4-(3-Py)) = N[C@@H](Cc1ccc(-c2cccnc2)cc1)C(=O)O; Tyr(3,5-Br2) = N[C@@H](Cc1cc(Br)c(O)c(Br)c1)C(=O)O; Trp(7-Cl) = N[C@@H](Cc1c[nH]c2c(Cl)cccc12)C(=O)O; Tyr(3,5-I2) = N[C@@H](Cc1cc(I)c(O)c(I)c1)C(=O)O; Phe(4-CONH2) = NC(=O)c1ccc(C[C@H](N)C(=O)O)cc1; Trp(7-Me) = Cc1cccc2c(C[C@H](N)C(=O)O)c[nH]c12; Bip = N[C@@H](Cc1ccc(-c2ccccc2)cc1)C(=O)O; dPhe(4-NH2) = Nc1ccc(C[C@@H](N)C(=O)O)cc1; dPhe(4-Br) = N[C@H](Cc1ccc(Br)cc1)C(=O)O; Phe(4-I) = N[C@@H](Cc1ccc(I)cc1)C(=O)O; h4Pal = N[C@@H](CCc1ccncc1)C(=O)O; 4Pal = N[C@@H](Cc1ccncc1)C(=O)O; Carboxymethyl = O=C(O)C*; NMeA = CN[C@@H](C)C(=O)O; Allyl = C=CC*
# Target: T1, PE-labeled human PD-L1-Ig binding to Jurkat cell line over-expressing human PD-1 (Jurkat-PD-1) (Homo sapiens, UniProt Q15116)
# T1 construct: expressed in transfected cells; host or cells: Jurkat
# Test: Jurkat-PD-1 Cell Binding High-Content Screening Assay (CBA): Method 1
# Conditions: Jurkat-hPD-1 cells, PE-labeled PD-L1-Ig 20 nM final; read-out: Jurkat HPDL1 PD1 IC50 (uM) (Method 1)
# T1 sequence (Q15116 25-288): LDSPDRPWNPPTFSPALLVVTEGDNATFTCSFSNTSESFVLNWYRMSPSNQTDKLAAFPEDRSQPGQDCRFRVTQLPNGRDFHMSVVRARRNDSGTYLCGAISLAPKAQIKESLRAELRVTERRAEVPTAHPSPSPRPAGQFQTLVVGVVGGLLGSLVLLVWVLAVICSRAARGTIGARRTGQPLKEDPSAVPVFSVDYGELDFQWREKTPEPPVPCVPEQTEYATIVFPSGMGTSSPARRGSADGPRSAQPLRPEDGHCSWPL
row,SMILES,IC50 [µM]
1,CC(C)C[C@@H]1NC(=O)[C@H](CCCNC(=N)N)NC(=O)[C@@H](CC(C)C)NC(=O)[C@H](C)N(C)C(=O)[C@H](CCCNC(=N)N)NC(=O)[C@H](Cc2ccc(-c3ccccc3)cc2)NC(=O)[C@H](C(C)C)NC(=O)[C@H](Cc2c[nH]c3ccccc23)NC(=O)[C@H](CC(=O)O)NC(=O)[C@H](CCc2ccncc2)NC(=O)[C@H](Cc2ccccc2)NC(=O)CSC[C@@H](C(=O)N[C@@H](C)C(N)=O)NC(=O)[C@H]([C@@H](C)O)NC(=O)[C@H](C(C)C)NC1=O [Compound 1084] ({CH2CO}-F[h4Pal]DWV[Bip]R[NMeA][dL]RLVTCA-NH2; thioether N-14),0.09
2,CC(C)C[C@@H]1NC(=O)[C@H](CCCNC(=N)N)NC(=O)[C@@H](CC(C)C)NC(=O)[C@H](C)N(C)C(=O)[C@H](CCCNC(=N)N)NC(=O)[C@H](Cc2ccc(-c3ccccc3)cc2)NC(=O)[C@H](C(C)C)NC(=O)[C@H](Cc2c[nH]c3ccccc23)NC(=O)[C@H](CC(=O)O)NC(=O)[C@H](Cc2ccncc2)NC(=O)[C@H](Cc2ccccc2)NC(=O)CSC[C@@H](C(=O)N[C@@H](C)C(N)=O)NC(=O)[C@H]([C@@H](C)O)NC(=O)[C@H](C(C)C)NC1=O [Compound 1085] ({CH2CO}-F[4Pal]DWV[Bip]R[NMeA][dL]RLVTCA-NH2; thioether N-14),0.07
3,CC(C)C[C@@H]1NC(=O)[C@H](CCCNC(=N)N)NC(=O)[C@@H](Cc2ccc(Br)cc2)NC(=O)[C@H](C)N(C)C(=O)[C@H](CCCNC(=N)N)NC(=O)[C@H](Cc2ccc(-c3ccccc3)cc2)NC(=O)[C@H](C(C)C)NC(=O)[C@H](Cc2c[nH]c3ccccc23)NC(=O)[C@H](CC(=O)O)NC(=O)[C@H](Cc2ccc(O)cc2)NC(=O)[C@H](Cc2ccccc2)NC(=O)CSC[C@@H](C(=O)N[C@@H](C)C(N)=O)NC(=O)[C@H]([C@@H](C)O)NC(=O)[C@H](C(C)C)NC1=O [Compound 1086] ({CH2CO}-FYDWV[Bip]R[NMeA][dPhe(4-Br)]RLVTCA-NH2; thioether N-14),0.69
4,CC(C)C[C@@H]1NC(=O)[C@H](CCCNC(=N)N)NC(=O)[C@@H](Cc2ccc(N)cc2)NC(=O)[C@H](C)N(C)C(=O)[C@H](CCCNC(=N)N)NC(=O)[C@H](Cc2ccc(-c3ccccc3)cc2)NC(=O)[C@H](C(C)C)NC(=O)[C@H](Cc2c[nH]c3ccccc23)NC(=O)[C@H](CC(=O)O)NC(=O)[C@H](Cc2ccc(O)cc2)NC(=O)[C@H](Cc2ccccc2)NC(=O)CSC[C@@H](C(=O)N[C@@H](C)C(N)=O)NC(=O)[C@H]([C@@H](C)O)NC(=O)[C@H](C(C)C)NC1=O [Compound 1087] ({CH2CO}-FYDWV[Bip]R[NMeA][dPhe(4-NH2)]RLVTCA-NH2; thioether N-14),0.33
5,C=CCOc1ccc(C[C@@H]2NC(=O)[C@H](Cc3ccccc3)NC(=O)CSC[C@@H](C(=O)N[C@@H](C)C(N)=O)NC(=O)[C@H]([C@@H](C)O)NC(=O)[C@H](C(C)C)NC(=O)[C@H](CC(C)C)NC(=O)[C@H](CCCNC(=N)N)NC(=O)[C@@H](CC(C)C)NC(=O)[C@H](C)N(C)C(=O)[C@H](CCCNC(=N)N)NC(=O)[C@H](Cc3ccc(-c4ccccc4)cc3)NC(=O)[C@H](C(C)C)NC(=O)[C@H](Cc3c[nH]c4ccccc34)NC(=O)[C@H](CC(=O)O)NC2=O)cc1 [Compound 1088] ({CH2CO}-FY(Allyl)DWV[Bip]R[NMeA][dL]RLVTCA-NH2; thioether N-14),0.41
6,CC(C)C[C@@H]1NC(=O)[C@H](CCCNC(=N)N)NC(=O)[C@@H](CC(C)C)NC(=O)[C@H](C)N(C)C(=O)[C@H](CCCNC(=N)N)NC(=O)[C@H](Cc2ccc(I)cc2)NC(=O)[C@H](C(C)C)NC(=O)[C@H](Cc2c[nH]c3ccccc23)NC(=O)[C@H](CC(=O)O)NC(=O)[C@H](Cc2ccc(O)cc2)NC(=O)[C@H](Cc2ccccc2)NC(=O)CSC[C@@H](C(=O)N[C@@H](C)C(N)=O)NC(=O)[C@H]([C@@H](C)O)NC(=O)[C@H](C(C)C)NC1=O [Compound 1089] ({CH2CO}-FYDWV[Phe(4-I)]R[NMeA][dL]RLVTCA-NH2; thioether N-14),0.94
7,COc1ccc(C[C@@H]2NC(=O)[C@H](Cc3ccccc3)NC(=O)CSC[C@@H](C(=O)N[C@@H](C)C(N)=O)NC(=O)[C@H]([C@@H](C)O)NC(=O)[C@H](C(C)C)NC(=O)[C@H](CC(C)C)NC(=O)[C@H](CCCNC(=N)N)NC(=O)[C@@H](CC(C)C)NC(=O)[C@H](C)N(C)C(=O)[C@H](CCCNC(=N)N)NC(=O)[C@H](Cc3ccc(-c4ccccc4)cc3)NC(=O)[C@H](C(C)C)NC(=O)[C@H](Cc3c[nH]c4ccccc34)NC(=O)[C@H](CC(=O)O)NC2=O)cc1 [Compound 1091] ({CH2CO}-FY(Me)DWV[Bip]R[NMeA][dL]RLVTCA-NH2; thioether N-14),0.09
8,"CC(C)C[C@@H]1NC(=O)[C@H](CCCNC(=N)N)NC(=O)[C@@H](CC(C)C)NC(=O)[C@H](C)N(C)C(=O)[C@H](CCCNC(=N)N)NC(=O)[C@H](Cc2ccc(-c3ccccc3)cc2)NC(=O)[C@H](C(C)C)NC(=O)[C@H](Cc2c[nH]c3ccccc23)NC(=O)[C@H](CC(=O)O)NC(=O)[C@H](Cc2cc(Br)c(O)c(Br)c2)NC(=O)[C@H](Cc2ccccc2)NC(=O)CSC[C@@H](C(=O)N[C@@H](C)C(N)=O)NC(=O)[C@H]([C@@H](C)O)NC(=O)[C@H](C(C)C)NC1=O [Compound 1092] ({CH2CO}-F[Tyr(3,5-Br2)]DWV[Bip]R[NMeA][dL]RLVTCA-NH2; thioether N-14)",0.42

# Further lines, results first:
row,IC50 [µM],SMILES
1,0.05,"CC(C)C[C@@H]1NC(=O)[C@H](CCCNC(=N)N)NC(=O)[C@@H](CC(C)C)NC(=O)[C@H](C)N(C)C(=O)[C@H](CCCNC(=N)N)NC(=O)[C@H](Cc2ccc(-c3ccccc3)cc2)NC(=O)[C@H](C(C)C)NC(=O)[C@H](Cc2c[nH]c3ccccc23)NC(=O)[C@H](CC(=O)O)NC(=O)[C@H](Cc2cc(I)c(O)c(I)c2)NC(=O)[C@H](Cc2ccccc2)NC(=O)CSC[C@@H](C(=O)N[C@@H](C)C(N)=O)NC(=O)[C@H]([C@@H](C)O)NC(=O)[C@H](C(C)C)NC1=O [Compound 1093] ({CH2CO}-F[Tyr(3,5-I2)]DWV[Bip]R[NMeA][dL]RLVTCA-NH2; thioether N-14)"
2,0.77,CC(C)C[C@@H]1NC(=O)[C@H](CCCNC(=N)N)NC(=O)[C@@H](CC(C)C)NC(=O)[C@H](C)N(C)C(=O)[C@H](CCCNC(=N)N)NC(=O)[C@H](Cc2ccc(-c3ccccc3)cc2)NC(=O)[C@H](C(C)C)NC(=O)[C@H](Cc2c[nH]c3ccccc23)NC(=O)[C@H](CC(=O)O)NC(=O)[C@H](Cc2ccc(OCC(=O)O)cc2)NC(=O)[C@H](Cc2ccccc2)NC(=O)CSC[C@@H](C(=O)N[C@@H](C)C(N)=O)NC(=O)[C@H]([C@@H](C)O)NC(=O)[C@H](C(C)C)NC1=O [Compound 1094] ({CH2CO}-FY(Carboxymethyl)DWV[Bip]R[NMeA][dL]RLVTCA-NH2; thioether N-14)
3,0.15,CC(C)C[C@@H]1NC(=O)[C@H](CCCNC(=N)N)NC(=O)[C@@H](CC(C)C)NC(=O)[C@H](C)N(C)C(=O)[C@H](CCCNC(=N)N)NC(=O)[C@H](Cc2ccc(-c3ccccc3)cc2)NC(=O)[C@H](C(C)C)NC(=O)[C@H](Cc2c[nH]c3ccccc23)NC(=O)[C@H](CC(=O)O)NC(=O)[C@H](Cc2ccc(O)c([N+](=O)[O-])c2)NC(=O)[C@H](Cc2ccccc2)NC(=O)CSC[C@@H](C(=O)N[C@@H](C)C(N)=O)NC(=O)[C@H]([C@@H](C)O)NC(=O)[C@H](C(C)C)NC1=O [Compound 1095] ({CH2CO}-F[Tyr(3-NO2)]DWV[Bip]R[NMeA][dL]RLVTCA-NH2; thioether N-14)
4,0.29,CC(C)C[C@@H]1NC(=O)[C@H](CCCNC(=N)N)NC(=O)[C@@H](CC(C)C)NC(=O)[C@H](C)N(C)C(=O)[C@H](CCCNC(=N)N)NC(=O)[C@H](Cc2ccc(-c3cccnc3)cc2)NC(=O)[C@H](C(C)C)NC(=O)[C@H](Cc2c[nH]c3ccccc23)NC(=O)[C@H](CC(=O)O)NC(=O)[C@H](Cc2ccc(O)cc2)NC(=O)[C@H](Cc2ccccc2)NC(=O)CSC[C@@H](C(=O)N[C@@H](C)C(N)=O)NC(=O)[C@H]([C@@H](C)O)NC(=O)[C@H](C(C)C)NC1=O [Compound 1096] ({CH2CO}-FYDWV[Phe(4-(3-Py))]R[NMeA][dL]RLVTCA-NH2; thioether N-14)
5,0.21,Cc1cccc2c(C[C@@H]3NC(=O)[C@H](CC(=O)O)NC(=O)[C@H](Cc4ccc(O)cc4)NC(=O)[C@H](Cc4ccccc4)NC(=O)CSC[C@@H](C(=O)N[C@@H](C)C(N)=O)NC(=O)[C@H]([C@@H](C)O)NC(=O)[C@H](C(C)C)NC(=O)[C@H](CC(C)C)NC(=O)[C@H](CCCNC(=N)N)NC(=O)[C@@H](CC(C)C)NC(=O)[C@H](C)N(C)C(=O)[C@H](CCCNC(=N)N)NC(=O)[C@H](Cc4ccc(-c5ccccc5)cc4)NC(=O)[C@H](C(C)C)NC3=O)c[nH]c12 [Compound 1097] ({CH2CO}-FYD[Trp(7-Me)]V[Bip]R[NMeA][dL]RLVTCA-NH2; thioether N-14)
6,0.13,CC(C)C[C@@H]1NC(=O)[C@H](CCCNC(=N)N)NC(=O)[C@@H](CC(C)C)NC(=O)[C@H](C)N(C)C(=O)[C@H](CCCNC(=N)N)NC(=O)[C@H](Cc2ccc(-c3ccccc3)cc2)NC(=O)[C@H](C(C)C)NC(=O)[C@H](Cc2c[nH]c3c(Cl)cccc23)NC(=O)[C@H](CC(=O)O)NC(=O)[C@H](Cc2ccc(O)cc2)NC(=O)[C@H](Cc2ccccc2)NC(=O)CSC[C@@H](C(=O)N[C@@H](C)C(N)=O)NC(=O)[C@H]([C@@H](C)O)NC(=O)[C@H](C(C)C)NC1=O [Compound 1098] ({CH2CO}-FYD[Trp(7-Cl)]V[Bip]R[NMeA][dL]RLVTCA-NH2; thioether N-14)
7,0.03,CC(C)C[C@@H]1NC(=O)[C@H](CCCNC(=N)N)NC(=O)[C@@H](CC(C)C)NC(=O)[C@H](C)N(C)C(=O)[C@H](CCCNC(=N)N)NC(=O)[C@H](Cc2ccc(-c3ccccc3)cc2)NC(=O)[C@H](C(C)C)NC(=O)[C@H](Cc2c[nH]c3ccccc23)NC(=O)[C@H](CC(=O)O)NC(=O)[C@H](Cc2ccc(C(N)=O)cc2)NC(=O)[C@H](Cc2ccccc2)NC(=O)CSC[C@@H](C(=O)N[C@@H](C)C(N)=O)NC(=O)[C@H]([C@@H](C)O)NC(=O)[C@H](C(C)C)NC1=O [Compound 1099] ({CH2CO}-F[Phe(4-CONH2)]DWV[Bip]R[NMeA][dL]RLVTCA-NH2; thioether N-14)
